In patent publication US10656158B2, “Identification of enzyme activity through determination of its localization” (International Business Machines Corporation, priority 2014, dated 2020):

Target: T1, MurA enzyme (Bacillus subtilis, UniProt P70965)
T1 construct: expressed in transfected cells
Experiment: MurA-CFP enzyme localization (condensation) by fluorescence imaging in B. subtilis cells
Format: cell-based
Details: for state of MurA-CFP enzyme in the cell (localized or diffuse): exposure during exponential growth, 5 mM fosfomycin or 0.5 μg ml^−1 vancomycin, fluorescence imaging, 30° C.
Experimental: Enzymatic activity of the MurA enzyme in Bacillus subtilis was measured in the presence of enzyme condensation modulating agents. MurA enzyme is involved in an enzymatic biosynthetic pathway that catalyzes a biosynthetic precursor of peptidoglycan, a polymer of the cell wall. The agents that were assessed for effects on MurA were antibiotics fosfomycin and vancomycin.
The B. subtilis cells were cultivated to express a MurA-CFP conjugate protein (MurA-cyan fluorescent protein) under its natural promoter. After one hour in exponential growth, 1 ml of cell culture was centrifuged. The supernatant was collected and added to 2 ml of melted […] agarose solution in LB. The resulting 1.2% solution of molten agar/culture supernatant was supplemented with 0.5 μg ml^−1 FM 4-64 dye (N-(3-triethylammoniumpropyl)-4-(6-(4-(diethylamino) phenyl) hexatrienyl) pyridinium dibromide). Then 5 mM fosfomycin or 0.5 μg ml^−1 vancomycin was added to the well of a culture slide (wells 18 mm diameter×1.75 mm depth) and covered with a glass slide.
After cooling, the cover glass was removed and two air pockets were cut out of the agarose with a 15 ml tube, leaving a 3-5 mm agar bridge in the center of the well. Seven microliters of the remaining culture was spread over the agar, partially dried and sealed with cover glass. After cooling, the slide was removed and two air pockets were cut out of the agar leaving a 3-5 mm agar bridge in the center of the well. Cells were suspended in LB with FM4-64 dye (0.5 μg ml^−1) and were added at the agar bridge and covered by a glass coverslip. To prevent drying during the experiment, 50% glycerol was applied to the region of contact between the slide and the coverslip.
The slide was equilibrated in an environmentally controlled chamber at 30° C. (Precision Control Weather Station) for at least 10 min prior to visualization. […] After 2 hours of imaging, MurA-CFP expressing cells stopped growing, but the condensation of the enzyme could be detected by a bright fluorescent spot.

T1 sequence (P70965 whole entry): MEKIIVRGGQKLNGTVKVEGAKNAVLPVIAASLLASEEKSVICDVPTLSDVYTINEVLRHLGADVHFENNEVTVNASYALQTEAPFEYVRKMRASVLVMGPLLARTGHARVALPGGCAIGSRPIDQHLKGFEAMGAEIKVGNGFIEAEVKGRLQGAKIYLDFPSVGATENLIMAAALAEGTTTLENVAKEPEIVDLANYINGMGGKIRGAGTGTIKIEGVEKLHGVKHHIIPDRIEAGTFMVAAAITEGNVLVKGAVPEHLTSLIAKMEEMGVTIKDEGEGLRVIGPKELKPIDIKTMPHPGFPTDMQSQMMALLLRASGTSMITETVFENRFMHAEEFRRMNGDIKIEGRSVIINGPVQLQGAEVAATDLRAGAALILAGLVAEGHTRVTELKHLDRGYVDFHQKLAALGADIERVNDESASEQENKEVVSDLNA

Compound | areas of localized MurA-CFP (added to the cells during stationary growth before MurA began to localize (not shown)) | state of MurA-CFP enzyme in the cell (localized or diffuse)
C[C@@H]1O[C@@H]1P(=O)(O)O [Fosfomycin, fosfomycin] | not observed | localized
CN[C@H](CC(C)C)C(=O)N[C@H]1C(=O)N[C@@H](CC(N)=O)C(=O)N[C@H]2C(=O)N[C@H]3C(=O)N[C@H](C(=O)N[C@H](C(=O)O)c4cc(O)cc(O)c4-c4cc3ccc4O)[C@H](O)c3ccc(c(Cl)c3)Oc3cc2cc(c3O[C@@H]2O[C@H](CO)[C@@H](O)[C@H](O)[C@H]2O[C@H]2C[C@](C)(N)[C@H](O)[C@H](C)O2)Oc2ccc(cc2Cl)[C@H]1O [Vancomycin, vancomycin] | – | diffuse
